Structures are written as SMILES.

This data set can be described thus: logP determination by HPLC (EEC Directive 79/831 Annex V. A8). It counts as physicochemical. Particulars: gradient method, acetonitrile/0.1% aqueous phosphoric acid. How it is done: The logP values were determined in accordance with EEC Directive 79/831 Annex V. A8 by HPLC (gradient method, acetonitrile/0.1% aqueous phosphoric acid).
On to `CC(C)Cc1nc([S+](C)[O-])nc(Cl)c1-c1ccc(F)cc1Cl` (stereo not shown) [4-chloro-5-(2-chloro-4-fluorophenyl)-6-isobutyl-2-(methylsulphinyl)pyrimidine], for which the chromatographic logP (in general, lipophilicity estimated from chromatographic retention) came out at 3.27.

As to `CC(C)Cc1nc(-n2cncn2)nc(Cl)c1-c1ccc(F)cc1Cl` [Example 1, 4-chloro-5-(2-chloro-4-fluorophenyl)-6-isobutyl-2-(1H-1,2,4-triazol-1-yl)pyrimidine], the chromatographic logP is 3.79.

Compound `CSc1nc(Cl)c(-c2ccc(F)cc2Cl)c(CC(C)C)n1` [II-2, 4-chloro-5-(2-chloro-4-fluorophenyl)-6-isobutyl-2-(methylthio)pyrimidine] gave a chromatographic logP of 5.67.

In turn, `CC(C)Cc1nc(S(C)(=O)=O)nc(Cl)c1-c1ccc(F)cc1Cl` [III-2a, 4-chloro-5-(2-chloro-4-fluorophenyl)-6-isobutyl-2-(methylsulphonyl)pyrimidine] had a chromatographic logP of 3.82.

The values are drawn from patent US20050182073A1, “5-Phenylpyrimidines” (priority 2004, published 2005).
